Values of other authors, collected in US8753875B2, “Compositions and means for diagnosing microbial infections” (priority 2007, dated 2014).
Where two headings read alike, the source gives them in different places.

How the values were obtained:
E. coli [1] = settings: cited from earlier work
E. coli [2] = settings: 1142 E. coli outpatient urinary isolates, USA and Canada; cited from earlier work

Molecule | Antimicrobial resistance of E. coli (resistance in percent) (E. coli [1]; Austria, n 126) | Antimicrobial resistance of E. coli (resistance in percent) (E. coli [1]; Belgium, n 137) | Antimicrobial resistance of E. coli (resistance in percent) (E. coli [1]; Canada, n 166) | Antimicrobial resistance of E. coli (resistance in percent) (E. coli [1]; Denmark, n 85) | Antimicrobial resistance of E. coli (resistance in percent) (E. coli [1]; Finland, n 182) | Antimicrobial resistance of E. coli (resistance in percent) (E. coli [1]; France, n 199) | Antimicrobial resistance of E. coli (resistance in percent) (E. coli [1]; Germany, n 138) | Antimicrobial resistance of E. coli (resistance in percent) (E. coli [1]; Greece, n 132) | Antimicrobial resistance of E. coli (resistance in percent) (E. coli [1]; Ireland, n 154) | Antimicrobial resistance of E. coli (resistance in percent) (E. coli [1]; Luxembourg, n 24) | Antimicrobial resistance of E. coli (resistance in percent) (E. coli [1]; Norway, n 168) | Antimicrobial resistance of E. coli (resistance in percent) (E. coli [1]; Portugal, n 86) | Antimicrobial resistance of E. coli (resistance in percent) (E. coli [1]; Spain, n 191) | Antimicrobial resistance of E. coli (resistance in percent) (E. coli [1]; Sweden, n 193) | Antimicrobial resistance of E. coli (resistance in percent) (E. coli [1]; Switzerland, n 122) | Antimicrobial resistance of E. coli (resistance in percent) (E. coli [1]; The Netherlands, n 195) | Antimicrobial resistance of E. coli (resistance in percent) (E. coli [1]; Total, n 2478) | Antimicrobial resistance of E. coli (resistance in percent) (E. coli [1]; United Kingdom, n 180) | Overall resistance in E. coli (E. coli [2])
CC1=C(C(=O)O)N2C(=O)C(NC(=O)C(N)c3ccc(O)cc3)C2SC1 (stereo not shown) [CFR, 8-[2-amino-2-(4-hydroxyphenyl)-acetyl]amino-4-methyl-7-oxo-2-thia-6-azabicyclo [4.2.0] oct-4-ene-5-carboxylic acid] | 0.8% | 0.7% | 1.8% | 1.2% | 1.6% | 1.0% | 1.4% | 3.0% | 0.6% | 0% | 2.4% | 2.3% | 3.1% | 5.2% | 0.8% | 4.6% | 2.1% | 1.7% | 
C[C@@H]1O[C@@H]1P(=O)(O)O [FOF, [(2R,3S)-3-methyloxiran-2-yl]phosphonic acid] | 0% | 0.7% | 0.6% | 1.2% | 1.1% | 1.0% | 0% | 1.5% | 1.3% | 0% | 1.2% | 0% | 0.5% | 0.5% | 0.8% | 0.5% | 0.7% | 0% | 
CNC(C)C1CCC(N)C(OC2C(N)CC(N)C(OC3OCC(C)(O)C(NC)C3O)C2O)O1 (stereo not shown) [GEN, 2-[4,6-diamino-3-[3-amino-6-(1-methylaminoethyl)tetrahydropyran-2-yl]oxy-2-hydroxy-cyclohexoxy]-5-methyl-4-methylamino-tetrahydropyran-3,5-diol] | 0.8% | 0.7% | 0.6% | 0% | 0.5% | 0% | 0.7% | 0.8% | 0.6% | 0% | 0% | 3.5% | 4.7% | 0% | 3.3% | 0.5% | 1.0% | 0% | 
CCn1cc(C(=O)O)c(=O)c2ccc(C)nc21 [NAL, 1-ethyl-7-methyl-4-oxo-[1,8]naphthyridine-3-carboxylic acid] | 2.4% | 6.6% | 0.6% | 3.5% | 1.6% | 3.5% | 3.6% | 6.8% | 1.9% | 8.3% | 1.2% | 11.6% | 26.7% | 2.6% | 6.6% | 5.1% | 5.4% | 2.2% | 
Cc1cc(NS(=O)(=O)c2ccc(N)cc2)no1 [SUL, 4-amino-N-(5-methylisoxazol-3-yl)-benzenesulfonamide] | 25.4% | 32.8% | 25.3% | 21.2% | 15.4% | 31.7% | 34.8% | 19.7% | 40.3% | 25.0% | 25.0% | 44.2% | 48.7% | 16.6% | 31.1% | 25.6% | 29.1% | 31.7% | 
C[C@H]1COc2c(N3CCN(C)CC3)c(F)cc3c(=O)c(C(=O)O)cn1c23 [levofloxacin, (−)-(S)-9-fluoro-2,3-dihydro-3-methyl-10-(4-methyl-1-piperazinyl)-7-oxo-7H-pyrido [1,2,3-de]-1,4-benzoxazine-6-carboxylic acid] |  |  |  |  |  |  |  |  |  |  |  |  |  |  |  |  |  |  | 5.1%
co-amoxiclav [AMC] | 2.4% | 2.9% | 3.6% | 1.2% | 4.9% | 1.5% | 2.2% | 0.8% | 5.8% | 0% | 3.6% | 9.3% | 4.2% | 5.7% | 2.5% | 2.6% | 3.4% | 2.8% | 
